For one test, the target named is T1, cyclin D1/cdk 4 enzyme (Homo sapiens, UniProt P11802).
T1 construct: made in house; host or cells: Sf9 insect cells, recombinant baculovirus
Kind of test: CDK4 ELISA kinase assay (phospho-Rb ser 795 detection). In kind it is biochemical. The procedure, abridged: (§1)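 GST-Rb C-terminal fragment coated on plates; partially purified Sf9-expressed cyclin D1/CDK4, cyclin E/CDK2 or cyclin B/CDK1 with 200 μM ATP, pH 7.5 HEPES/MgCl2 buffer, 1 h at 30 °C; screen compound final 10 μg/ml. Phospho-Rb Ser795 detected by antibody ELISA (TMB, A450); % of control, IC50 from background-subtracted inhibition curves.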
(In an ELISA, binding on a coated surface is turned into a signal by an enzyme label.)

A further test deals with T2, cyclin E/CDK2 enzyme (Homo sapiens, UniProt P24941).
T2 construct: made in house; host or cells: Sf9 insect cells, recombinant baculovirus
In words: CDK2 ELISA kinase assay (phospho-Rb ser 795 detection). In kind it is biochemical. The procedure, abridged:
as §1

The target of another test is T3, cyclin B/CDK1 enzyme (Homo sapiens, UniProt P06493).
T3 construct: purchased New England BioLabs; host or cells: Sf9 insect cells, recombinant baculovirus
Kind of test: CDK1 ELISA kinase assay (phospho-Rb ser 795 detection). Format: biochemical. The procedure, abridged: as §1

A further test relates to BT474. Kind of test: Cytotoxicity assay (SRB), BT474. Format: cell-based. The procedure, abridged: (§2)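 Cells seeded overnight at 37 °C, 7% CO2 (BT474 12000, HCT-116 4000, LoVo and MCF-7 6000 cells/well) in RPMI 1640 with 5% FBS, then exposed to compound dilutions for 3 days (BT474 6 days). Survival versus untreated controls by TCA fixation and SRB staining, absorbance 540 nm.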

A further test deals with HCT-116. In words: Cytotoxicity assay (SRB), HCT-116. Format: cell-based. Particulars: HCT116 cells, SRB, read-out: In Vitro Cellular Activity IC50 HCT116. The procedure, abridged:
as §2

The test system of another test is LoVo. In words: Cytotoxicity assay (SRB), LoVo. Format: cell-based. The conditions noted are these: LoVo cells, SRB, read-out: In Vitro Cellular Activity IC50 LOVO. The procedure, abridged:
as §2

In another test the test system is MCF-7. In words: Cytotoxicity assay (SRB), MCF-7. In kind it is cell-based. The conditions noted are these: MCF-7 cells, SRB, read-out: In Vitro Cellular Activity IC50 MCF-7. In a few lines: as §2
Setting [1] is: In Vitro Enzyme Assay, cyclin D1/cdk 4, read-out: CDK4 IC50.
[2] abbreviates: In Vitro Enzyme Assay, cyclin E/CDK2, read-out: CDK2 IC50.
[3] abbreviates: In Vitro Enzyme Assay, cyclin B/CDK1, read-out: CDK1 IC50.
The mark [4] stands for this setting: BT474 cells, 6 days, SRB; read-out: In Vitro Cellular Activity IC50 BT474.
Where [5] appears, read: In Vitro Enzyme Assays, 200 μM ATP, read-out: CDK4 IC50.
Setting [6] is: In Vitro Enzyme Assays, read-out: CDK2 IC50.
[7] abbreviates: In Vitro Enzyme Assays, read-out: CDK1 IC50.
[8] abbreviates: Homo sapiens, BT-474, 144 h, BT474 cells, SRB, 6 days; read-out: In Vitro Cellular Activity IC50 BT474.
The mark [9] stands for this setting: Homo sapiens, HCT-116, 72 h, three days.
The mark [10] stands for this setting: Homo sapiens, LoVo, 72 h, three days.
The mark [11] stands for this setting: Homo sapiens, MCF7, 72 h, three days.
[12] abbreviates: Homo sapiens, BT-474, 144 h, BT474 cells, 6 days, SRB; read-out: In Vitro Cellular Activity IC50 BT474.
Setting [13] is: Homo sapiens, HCT-116, 72 h, 3 days.
[14] abbreviates: Homo sapiens, LoVo, 72 h, 3 days.
[15] abbreviates: Homo sapiens, MCF7, 72 h, 3 days.

Read-outs that look alike come from different tables or passages of the source.

T3 sequence (P06493 whole entry): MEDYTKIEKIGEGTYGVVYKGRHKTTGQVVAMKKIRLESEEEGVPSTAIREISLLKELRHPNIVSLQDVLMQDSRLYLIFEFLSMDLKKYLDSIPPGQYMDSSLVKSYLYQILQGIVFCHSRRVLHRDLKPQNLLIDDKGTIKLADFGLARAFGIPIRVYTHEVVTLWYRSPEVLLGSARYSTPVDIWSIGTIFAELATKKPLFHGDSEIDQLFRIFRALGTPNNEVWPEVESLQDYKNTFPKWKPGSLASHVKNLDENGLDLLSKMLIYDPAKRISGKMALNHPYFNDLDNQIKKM
T3 sequence (P14635 whole entry partner): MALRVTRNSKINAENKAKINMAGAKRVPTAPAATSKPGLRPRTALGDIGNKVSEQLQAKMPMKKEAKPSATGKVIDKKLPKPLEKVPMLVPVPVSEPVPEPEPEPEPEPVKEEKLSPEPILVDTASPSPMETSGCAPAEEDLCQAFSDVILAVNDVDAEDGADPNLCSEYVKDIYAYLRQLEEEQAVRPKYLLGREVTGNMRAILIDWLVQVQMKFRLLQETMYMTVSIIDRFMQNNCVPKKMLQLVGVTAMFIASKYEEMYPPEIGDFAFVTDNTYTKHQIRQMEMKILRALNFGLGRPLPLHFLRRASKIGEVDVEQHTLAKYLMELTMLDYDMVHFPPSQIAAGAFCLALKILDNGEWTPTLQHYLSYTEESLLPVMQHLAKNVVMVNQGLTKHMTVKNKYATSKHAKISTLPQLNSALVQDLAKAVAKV
T1 sequence (P11802 whole entry, species assumed): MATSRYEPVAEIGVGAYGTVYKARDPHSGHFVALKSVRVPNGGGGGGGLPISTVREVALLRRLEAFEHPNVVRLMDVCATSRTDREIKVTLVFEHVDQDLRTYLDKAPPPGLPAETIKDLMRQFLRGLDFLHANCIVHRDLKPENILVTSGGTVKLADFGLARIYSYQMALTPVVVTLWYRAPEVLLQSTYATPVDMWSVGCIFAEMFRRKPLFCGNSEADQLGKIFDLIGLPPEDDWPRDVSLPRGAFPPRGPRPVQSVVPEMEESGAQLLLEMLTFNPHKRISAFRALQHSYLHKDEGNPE
T1 sequence (P24385 whole entry partner, species assumed): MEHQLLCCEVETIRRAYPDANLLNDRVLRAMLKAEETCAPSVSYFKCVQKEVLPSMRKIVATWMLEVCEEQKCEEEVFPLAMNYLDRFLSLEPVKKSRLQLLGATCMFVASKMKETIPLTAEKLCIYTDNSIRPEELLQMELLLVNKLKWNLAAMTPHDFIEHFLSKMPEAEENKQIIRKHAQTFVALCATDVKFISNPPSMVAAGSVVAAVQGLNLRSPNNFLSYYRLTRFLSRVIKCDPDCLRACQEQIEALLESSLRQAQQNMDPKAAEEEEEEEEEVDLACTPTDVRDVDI

In general, IC50 refers to the midpoint of a concentration-inhibition curve. As for “6-Benzofuran-2-yl-4-[(3,4-dihydroxy-benzylamino)-methylene]-4H-isoquinoline-1,3-dione [Example 643]”, the IC50 was 3.5 µM on cyclin D1/cdk 4 enzyme (setting [1]); above 50 µM on cyclin E/CDK2 enzyme (setting [2]); above 50 µM at cyclin B/CDK1 enzyme (setting [3]); 13.4 µM with BT474 (setting [4]); 14.9 µM in the test with HCT-116 (3 days); 11.7 µM with LoVo (3 days). The IC50 with MCF-7 (3 days) came to 9.2 µM.
For the molecule “6-Bromo-4-[(4-methoxy-phenylamino)-methylene]-1,4-dihydro-2H-isoquinolin-3-one & 8-Bromo-4-[(4-methoxy-phenylamino)-methylene]-1,4-dihydro-2H-isoquinolin-3-one [Example 844]”, the IC50 at cyclin D1/cdk 4 enzyme (setting [1]) is 34.7 µM; at cyclin E/CDK2 enzyme (setting [2]), above 50 µM; at cyclin B/CDK1 enzyme (setting [3]), above 50 µM; with BT474 (setting [4]), 27.1 µM; in the test on HCT-116 (3 days), 28 µM; with LoVo (3 days), 26.7 µM. The IC50 in the test with MCF-7 (3 days) is 26.1 µM.
For “6-Bromo-4-[(4-pyrrolidin-1-ylmethyl-phenylamino)-methylene]-1,4-dihydro-2H-isoquinolin-3-one & 8-Bromo-4-[(4-pyrrolidin-1-ylmethyl-phenylamino)-methylene]-1,4-dihydro-2H-isoquinolin-3-one [Example 846]”, the IC50 was 2.5 µM on cyclin D1/cdk 4 enzyme (setting [1]); above 50 µM on cyclin E/CDK2 enzyme (setting [2]); above 50 µM on cyclin B/CDK1 enzyme (setting [3]); 10.7 µM in the test with BT474 (setting [4]); 2.6 µM with HCT-116 (3 days); 4.8 µM in the test with LoVo (3 days). Further, in the test on MCF-7 (3 days), the IC50 amounted to 4.9 µM.
As for “6-Bromo-4-{[4-(4-methyl-piperazin-1-yl)-phenylamino]-methylene}-1,4-dihydro-2H-isoquinolin-3-one & 8-Bromo-4-{[4-(4-methyl-piperazin-1-yl)-phenylamino]-methylene}-1,4-dihydro-2H-isoquinolin-3-one [Example 845]”, the IC50 at cyclin D1/cdk 4 enzyme (setting [1]) is 2.3 µM; at cyclin E/CDK2 enzyme (setting [2]) it was above 50 µM; at cyclin B/CDK1 enzyme (setting [3]), above 50 µM; in the test with BT474 (setting [4]), 7.5 µM; in the test with HCT-116 (3 days), 4.2 µM; in the test with LoVo (3 days), 2.5 µM. For the same molecule, the IC50 in the test on MCF-7 (3 days) was 4.5 µM.
`CC(O)C1CCCN1Cc1ccc(N/C=C2\C(=O)NC(=O)c3ccc(I)cc32)cc1` (single isomer, unassigned) [Example 374, 4-({4-[2-(1-Hydroxy-ethyl)-pyrrolidin-1-ylmethyl]-phenylamino}-methylene)-6-iodo-4H-isoquinoline-1,3-dione]: the IC50 is 1.3 µM at cyclin D1/cdk 4 enzyme (setting [5]); 37.1 µM at cyclin E/CDK2 enzyme (setting [6]); above 50 µM at cyclin B/CDK1 enzyme (setting [7]); 0.46 µM in the test with BT474 (setting [8]); 3.2 µM in the test with HCT-116 (setting [9]); 3.8 µM in the test with LoVo (setting [10]). The IC50 with MCF-7 (setting [11]) amounted to 1 µM.
Turning to `CC1CN(C)[C@H](C)CN1c1ccc(N/C=C2\C(=O)NC(=O)c3ccc(I)cc32)cc1` (stereo in doubt) [Example 233, (4Z)-6-Iodo-4-[({4-[(2S,5R)-2,4,5-trimethylpiperazin-1-yl]phenyl}amino)methylene]-isoquinoline-1,3(2H,4H)-dione], the IC50 was 3 µM at cyclin D1/cdk 4 enzyme (setting [5]); above 50 µM on cyclin E/CDK2 enzyme (setting [6]); above 50 µM on cyclin B/CDK1 enzyme (setting [7]); 6.9 µM in the test with BT474 (setting [8]); 5 µM in the test with HCT-116 (setting [9]); 4.4 µM in the test with LoVo (setting [10]). Also, the IC50 with MCF-7 (setting [11]) stood at 1 µM.
In the case of `CN1CCN(CCN(C)c2ccc(NC=C3C(=O)NC(=O)c4ccc(Br)cc43)cc2)CC1` (stereo in doubt) [Example 261, (4Z)-6-Bromo-4-{[(4-{methyl[2-(4-methylpiperazin-1-yl)ethyl]amino}phenyl)amino]methylene}isoquinoline-1,3(2H,4H)-dione], the IC50 is 2.6 µM at cyclin D1/cdk 4 enzyme (setting [5]); above 50 µM at cyclin E/CDK2 enzyme (setting [6]); above 50 µM on cyclin B/CDK1 enzyme (setting [7]); 10 µM with BT474 (setting [8]); 3 µM in the test with HCT-116 (setting [9]); 10 µM in the test with LoVo (setting [10]). Moreover, in the test on MCF-7 (setting [11]), the IC50 came to 9.2 µM.
Take `O=C1NC(=O)c2ccc(-c3ccsc3)cc2/C1=C/Nc1ccc(CN2CCC[C@@H]2CO)cc1` (stereo in doubt) [Example 421, 4-{[4-(2-Hydroxymethyl-pyrrolidin-1-ylmethyl)-phenylamino]-methylene}-6-thiophen-3-yl-4H-isoquinoline-1,3-dione]: the IC50 is 0.05 µM on cyclin D1/cdk 4 enzyme (setting [5]); above 50 µM on cyclin E/CDK2 enzyme (setting [6]); above 50 µM at cyclin B/CDK1 enzyme (setting [7]); 2.9 µM in the test with BT474 (setting [12]); 2.6 µM in the test with HCT-116 (setting [13]); 2.7 µM in the test on LoVo (setting [14]). In the test on MCF-7 (setting [15]), the 50% inhibitory concentration (IC50) stood at 3.8 µM.
Turning to `O=C1NC(=O)c2ccc(I)cc2/C1=C/Nc1ccc(N2CCC[C@H]2CO)c(F)c1` (stereo in doubt) [Example 426, 4-{[3-Fluoro-4-(2-hydroxymethyl-pyrrolidin-1-yl)-phenylamino]-methylene}-6-iodo-4H-isoquinoline-1,3-dione], the IC50 at cyclin D1/cdk 4 enzyme (setting [5]) was 10 µM; on cyclin E/CDK2 enzyme (setting [6]), 31 µM; on cyclin B/CDK1 enzyme (setting [7]) it was above 50 µM; in the test on BT474 (setting [12]), 4.5 µM; with HCT-116 (setting [13]), 1.6 µM; with LoVo (setting [14]) it was 2.2 µM. The IC50 with MCF-7 (setting [15]) amounted to 2.8 µM.
On to `O=C1CC[C@@H](CN/C=C2\C(=O)NC(=O)c3ccc(I)cc32)N1` (stereo in doubt) [Example 427, 6-Iodo-4-{[(5-oxo-pyrrolidin-2-ylmethyl)-amino]-methylene}-4H-isoquinoline-1,3-dione], for which the half-inhibitory concentration (IC50) on cyclin D1/cdk 4 enzyme (setting [5]) was 2.1 µM; at cyclin E/CDK2 enzyme (setting [6]), above 50 µM; at cyclin B/CDK1 enzyme (setting [7]) it was above 50 µM; in the test with BT474 (setting [12]), 23.2 µM; in the test on HCT-116 (setting [13]), 17.8 µM; with LoVo (setting [14]), 22.7 µM. The IC50 in the test with MCF-7 (setting [15]) was 22.4 µM.
Consider `O=C1NC(=O)c2ccc(Br)cc2/C1=C/Nc1ccc(CN2CCC[C@H]2CO)cc1` (stereo in doubt) [Example 437, 6-Bromo-4-{[4-(2-hydroxymethyl-pyrrolidin-1-ylmethyl)-phenylamino]-methylene}-4H-isoquinoline-1,3-dione], for which the IC50 is 0.75 µM on cyclin D1/cdk 4 enzyme (setting [5]); 36.3 µM at cyclin E/CDK2 enzyme (setting [6]); above 50 µM on cyclin B/CDK1 enzyme (setting [7]); 2.9 µM in the test with BT474 (setting [12]); 3.7 µM in the test on HCT-116 (setting [13]); 3.6 µM in the test with LoVo (setting [14]). Further, in the test on MCF-7 (setting [15]), the IC50 worked out at 3.1 µM.
As to `O=C1NC(=O)c2ccc(-c3cccs3)cc2/C1=C/Nc1ccc(CN2CCC[C@H]2CO)cc1` (stereo in doubt) [Example 438, 4-{[4-(2-Hydroxymethyl-pyrrolidin-1-ylmethyl)-phenylamino]-methylene}-6-thiophen-2-yl-4H-isoquinoline-1,3-dione], the concentration for half-maximal inhibition (IC50) on cyclin D1/cdk 4 enzyme (setting [5]) was 0.04 µM; on cyclin E/CDK2 enzyme (setting [6]), above 50 µM; at cyclin B/CDK1 enzyme (setting [7]), above 50 µM; with BT474 (setting [12]) it was 2.2 µM; in the test with HCT-116 (setting [13]) it was 1.6 µM; in the test on LoVo (setting [14]), 1.6 µM. For the same molecule, in the test on MCF-7 (setting [15]), the IC50 was determined as 1.8 µM.
As for `O=C1NC(=O)c2ccc(I)cc2/C1=C/Nc1ccc2ncccc2c1` [Example 272, (4Z)-6-Iodo-4-[(quinolin-6-ylamino)methylene]isoquinoline-1,3(2H,4H)-dione], the IC50 at cyclin E/CDK2 enzyme (setting [6]) was 39.7 µM; at cyclin B/CDK1 enzyme (setting [7]), above 50 µM; in the test on BT474 (setting [8]), 7.2 µM; with HCT-116 (setting [9]) it was 4.2 µM; with LoVo (setting [10]) it was 8.9 µM; with MCF-7 (setting [11]) it was 3.1 µM.
Regarding `CN1CCC(Oc2ccc(N/C=C3\C(=O)NC(=O)c4ccc(Br)cc43)cc2)C1` (stereo not drawn) [Example 877, (4Z)-6-Bromo-4-[({4-[(1-methylpyrrolidin-3-yl)oxy]phenyl}amino)methylene]isoquinoline-1,3(2H,4H)-dione], the IC50 at cyclin D1/cdk 4 enzyme (In Vitro Enzyme Assay, read-out: CDK4 IC50) was 42.5 µM; at cyclin E/CDK2 enzyme (In Vitro Enzyme Assay, read-out: CDK2 IC50) it was above 50 µM; at cyclin B/CDK1 enzyme (In Vitro Enzyme Assay, read-out: CDK1 IC50), above 50 µM; with HCT-116 (setting [13]), 3.9 µM; in the test with LoVo (setting [14]), 6.2 µM; with MCF-7 (setting [15]), 4.4 µM.

For the origin of these results see patent publication US7713994B2 (Wyeth LLC, priority 2005, dated 2010).
